ChEMBL document CHEMBL1201862, “PubChem BioAssay data set” (2004)
The source made the active and inactive calls.

Assays:
[1] = target: Adenosylmethionine-8-amino-7-oxononanoate aminotransferase (Mycobacterium tuberculosis, UniProt P9WQ81); assay: Mycobacterium tuberculosis BioA enzyme inhibitor Measured in Biochemical System Using Plate Reader - 2163-02_Inhibitor_Dose_CherryPick_Activity.; assay type: functional, Mycobacterium tuberculosis UT205
[2] = target: 26S proteasome non-ATPase regulatory subunit 14 (Homo sapiens, UniProt O00487); assay: inhibition of proteasome subunit RPN11 – biochemical, fluorescence polarization, uHTS hits, confirmation (AID 602368); assay type: functional
Chain of 26S proteasome non-ATPase regulatory subunit 14 (O00487 whole entry): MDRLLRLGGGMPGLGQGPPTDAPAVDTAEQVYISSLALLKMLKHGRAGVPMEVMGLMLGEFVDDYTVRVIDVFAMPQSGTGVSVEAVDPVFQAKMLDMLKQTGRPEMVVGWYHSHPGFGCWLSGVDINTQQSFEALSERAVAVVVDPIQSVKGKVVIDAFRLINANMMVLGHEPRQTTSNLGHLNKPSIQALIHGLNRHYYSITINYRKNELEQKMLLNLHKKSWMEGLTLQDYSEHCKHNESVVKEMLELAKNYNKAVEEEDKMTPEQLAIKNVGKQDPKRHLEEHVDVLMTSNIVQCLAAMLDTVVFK

Prothrombin = Prothrombin (Bos taurus, UniProt P00735); assay: thrombin inhibition, dose response, biochemical, fluorescence polarization, uHTS hits (AID 602369); assay type: functional
[3] = target: 72 kDa type IV collagenase (Homo sapiens, UniProt P08253); assay: Dose Response validation of uHTS RPN11 inhibitor hits using a MMP-2 Fluorescence assay.; assay type: functional
Chain of 72 kDa type IV collagenase (P08253 whole entry): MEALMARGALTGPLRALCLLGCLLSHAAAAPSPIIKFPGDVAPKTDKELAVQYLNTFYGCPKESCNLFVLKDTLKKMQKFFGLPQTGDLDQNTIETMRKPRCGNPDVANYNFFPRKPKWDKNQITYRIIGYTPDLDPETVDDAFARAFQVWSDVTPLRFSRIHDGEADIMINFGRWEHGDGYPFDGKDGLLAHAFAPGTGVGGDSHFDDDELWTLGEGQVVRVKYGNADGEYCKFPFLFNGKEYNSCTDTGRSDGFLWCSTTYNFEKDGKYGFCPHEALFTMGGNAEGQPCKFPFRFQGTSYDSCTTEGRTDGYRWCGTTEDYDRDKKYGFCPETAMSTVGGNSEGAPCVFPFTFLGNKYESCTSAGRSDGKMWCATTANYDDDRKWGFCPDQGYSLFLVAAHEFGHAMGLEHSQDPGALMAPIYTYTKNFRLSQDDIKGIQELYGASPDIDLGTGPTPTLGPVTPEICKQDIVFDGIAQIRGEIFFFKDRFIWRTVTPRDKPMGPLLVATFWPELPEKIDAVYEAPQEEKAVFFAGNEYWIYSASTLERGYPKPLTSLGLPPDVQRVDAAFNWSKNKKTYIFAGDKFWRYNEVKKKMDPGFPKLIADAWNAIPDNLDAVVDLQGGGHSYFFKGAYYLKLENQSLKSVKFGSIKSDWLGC

Steroidogenic factor 1 = Steroidogenic factor 1 (Homo sapiens, UniProt Q13285); assay: Counterscreen for inverse agonists of the liver receptor homolog-1 (LRH-1; NR5A2): Luminescence-based cell-based high throughput dose response assay to identify inverse agonists of the Steroidogenic Factor 1 Nuclear Receptor (SF1; NR5A1).; assay type: functional
Chain of Steroidogenic factor 1 (Q13285 whole entry): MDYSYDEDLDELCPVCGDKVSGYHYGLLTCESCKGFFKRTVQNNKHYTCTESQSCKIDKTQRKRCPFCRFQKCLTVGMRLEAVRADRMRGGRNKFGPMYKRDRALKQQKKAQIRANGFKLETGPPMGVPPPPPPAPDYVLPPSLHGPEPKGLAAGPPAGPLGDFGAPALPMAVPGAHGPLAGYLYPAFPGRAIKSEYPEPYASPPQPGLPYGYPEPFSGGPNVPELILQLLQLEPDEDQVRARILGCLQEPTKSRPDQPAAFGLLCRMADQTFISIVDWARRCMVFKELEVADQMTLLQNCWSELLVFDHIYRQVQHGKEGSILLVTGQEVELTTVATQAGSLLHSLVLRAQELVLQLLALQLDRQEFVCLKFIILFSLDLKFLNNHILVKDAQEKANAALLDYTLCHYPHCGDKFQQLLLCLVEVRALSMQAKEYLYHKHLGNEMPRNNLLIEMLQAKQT

[4] = StAR promoter reporter inhibition counter-screen, dose response, counter-screen for LRH-1 inverse agonist project, cell-based, luminescence, luciferase reporter (AID 651969); assay type: functional
[5] = target: Nuclear receptor subfamily 5 group A member 2 (Homo sapiens, UniProt O00482); assay type: functional, cell-based;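 further: HEK293T cells transfected with LRH-1 and a StAR promoter luciferase reporter; potency for inhibitors that lower LRH-1 driven reporter light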
Chain of Nuclear receptor subfamily 5 group A member 2 (O00482 whole entry): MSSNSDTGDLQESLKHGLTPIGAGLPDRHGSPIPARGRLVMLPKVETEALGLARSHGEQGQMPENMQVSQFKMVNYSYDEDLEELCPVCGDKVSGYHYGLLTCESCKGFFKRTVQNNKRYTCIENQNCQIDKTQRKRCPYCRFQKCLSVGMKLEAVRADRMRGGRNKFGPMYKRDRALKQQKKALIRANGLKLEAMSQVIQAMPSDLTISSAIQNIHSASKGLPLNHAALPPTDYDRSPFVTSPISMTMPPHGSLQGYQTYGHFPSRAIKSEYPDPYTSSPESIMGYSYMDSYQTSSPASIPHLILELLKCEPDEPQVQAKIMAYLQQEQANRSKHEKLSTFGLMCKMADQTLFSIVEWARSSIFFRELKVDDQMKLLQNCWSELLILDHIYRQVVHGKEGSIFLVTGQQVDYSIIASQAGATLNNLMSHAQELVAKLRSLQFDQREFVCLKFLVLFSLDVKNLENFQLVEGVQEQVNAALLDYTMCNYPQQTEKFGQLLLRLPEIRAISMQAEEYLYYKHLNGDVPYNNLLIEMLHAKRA

[6] = target: Tyrosine-protein phosphatase non-receptor type 11 (Homo sapiens, UniProt Q06124); assay: SHP2 phosphatase inhibition, dose response, selectivity assay for STEP inhibitor project, biochemical (AID 602367); assay type: functional; details: read-out: IC50_Mean
Chain of Tyrosine-protein phosphatase non-receptor type 11 (Q06124 whole entry): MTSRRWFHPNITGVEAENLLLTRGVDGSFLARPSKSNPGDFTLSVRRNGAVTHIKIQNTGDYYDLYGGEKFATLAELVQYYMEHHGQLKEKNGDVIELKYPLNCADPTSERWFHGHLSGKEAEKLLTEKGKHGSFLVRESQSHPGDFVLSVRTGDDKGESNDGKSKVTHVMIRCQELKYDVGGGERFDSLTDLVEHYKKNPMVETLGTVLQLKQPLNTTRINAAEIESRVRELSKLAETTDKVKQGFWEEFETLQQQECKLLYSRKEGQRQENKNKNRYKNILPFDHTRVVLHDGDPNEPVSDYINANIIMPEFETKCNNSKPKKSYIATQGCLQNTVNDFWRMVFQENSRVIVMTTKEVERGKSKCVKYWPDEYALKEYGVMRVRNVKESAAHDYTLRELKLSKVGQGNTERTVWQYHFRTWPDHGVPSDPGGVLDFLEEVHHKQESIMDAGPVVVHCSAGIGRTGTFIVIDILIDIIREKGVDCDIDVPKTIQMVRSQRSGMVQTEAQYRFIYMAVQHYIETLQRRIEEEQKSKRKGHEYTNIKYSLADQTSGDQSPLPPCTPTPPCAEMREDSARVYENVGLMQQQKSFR

[7] = target: T1, Calpain-2 catalytic subunit (Sus scrofa, UniProt P43367); assay: pig calpain II inhibitor potency, dose response, biochemical, fluorogenic peptide substrate (AID 1420); assay type: functional
T1 sequence (P43367 whole entry): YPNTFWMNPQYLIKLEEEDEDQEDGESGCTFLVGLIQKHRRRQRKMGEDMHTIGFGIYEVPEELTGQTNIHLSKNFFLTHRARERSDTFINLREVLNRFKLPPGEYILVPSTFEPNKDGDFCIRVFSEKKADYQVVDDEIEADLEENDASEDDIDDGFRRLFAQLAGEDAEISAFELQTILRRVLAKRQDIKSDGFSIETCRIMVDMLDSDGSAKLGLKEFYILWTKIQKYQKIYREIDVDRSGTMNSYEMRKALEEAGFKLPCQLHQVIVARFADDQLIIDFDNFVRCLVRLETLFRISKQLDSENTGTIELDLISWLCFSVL

[8] = target: T2, Small ubiquitin-related modifier 1 (Homo sapiens, UniProt P63165); assay: inhibitors of SUMO1 partner interactions, dose response, biochemical, FRET (AID 624383); assay type: functional; details: read-out: IC50_Mean
T2 sequence (P63165 whole entry): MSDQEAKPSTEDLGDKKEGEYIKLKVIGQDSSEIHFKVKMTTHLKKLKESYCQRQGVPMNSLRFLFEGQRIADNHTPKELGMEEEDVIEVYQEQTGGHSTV

[9] = target: T2, Small ubiquitin-related modifier 1; assay: inhibitors of SUMO1 peptide binding, dose response, biochemical, fluorescence polarization, uHTS hits (AID 624382); assay type: functional; details: read-out: IC50_Mean
[10] = target: Tyrosine-protein phosphatase non-receptor type 5 (Homo sapiens, UniProt P54829); assay: STEP phosphatase inhibitors, confirmation, biochemical, fluorescence intensity, uHTS hits (AID 602372); assay type: functional; details: read-out: IC50_Mean
Chain of Tyrosine-protein phosphatase non-receptor type 5 (P54829 whole entry): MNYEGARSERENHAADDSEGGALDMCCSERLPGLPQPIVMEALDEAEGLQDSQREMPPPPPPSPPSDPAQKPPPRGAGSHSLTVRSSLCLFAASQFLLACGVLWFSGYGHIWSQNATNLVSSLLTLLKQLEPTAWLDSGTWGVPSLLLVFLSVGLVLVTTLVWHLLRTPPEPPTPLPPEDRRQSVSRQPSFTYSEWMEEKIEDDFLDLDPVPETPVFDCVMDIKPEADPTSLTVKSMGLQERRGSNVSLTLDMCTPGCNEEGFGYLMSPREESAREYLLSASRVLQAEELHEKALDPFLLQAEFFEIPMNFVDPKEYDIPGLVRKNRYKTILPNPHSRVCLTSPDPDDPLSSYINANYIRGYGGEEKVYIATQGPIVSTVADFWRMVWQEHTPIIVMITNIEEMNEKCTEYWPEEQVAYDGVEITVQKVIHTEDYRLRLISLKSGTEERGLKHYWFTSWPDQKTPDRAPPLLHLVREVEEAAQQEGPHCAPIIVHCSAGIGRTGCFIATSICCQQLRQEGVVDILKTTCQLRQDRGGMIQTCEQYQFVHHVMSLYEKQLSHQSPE

[11] = target: Eukaryotic translation initiation factor 4E (Mus musculus, UniProt P63073); assay: eIF4E–eIF4G protein interaction inhibitors, dose response, biochemical, TR-FRET (AID 855); assay type: functional;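 further: potency for disrupting eIF4E binding to eIF4GI seen as loss of FRET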
Chain of Eukaryotic translation initiation factor 4E (P63073 whole entry): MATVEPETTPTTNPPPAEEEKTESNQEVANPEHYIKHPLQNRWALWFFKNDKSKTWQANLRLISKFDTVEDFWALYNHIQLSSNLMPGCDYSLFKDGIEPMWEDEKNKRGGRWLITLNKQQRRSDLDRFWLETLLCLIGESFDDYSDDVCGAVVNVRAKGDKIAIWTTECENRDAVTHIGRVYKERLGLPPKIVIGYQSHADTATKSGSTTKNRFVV

[12] = target: Dual specificity protein phosphatase 3 (Homo sapiens, UniProt P51452); assay: VHR phosphatase inhibition, dose response, selectivity assay for STEP inhibitor project, biochemical (AID 602374); assay type: functional; details: read-out: IC50_Mean
Chain of Dual specificity protein phosphatase 3 (P51452 whole entry): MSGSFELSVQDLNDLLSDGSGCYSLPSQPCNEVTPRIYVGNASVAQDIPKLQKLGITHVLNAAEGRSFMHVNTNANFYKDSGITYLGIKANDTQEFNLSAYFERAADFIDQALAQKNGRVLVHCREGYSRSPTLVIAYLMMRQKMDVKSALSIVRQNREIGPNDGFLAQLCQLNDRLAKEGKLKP

[13] = system: Streptococcus sp. 'group A'; assay: growth inhibition of control SK(-) GAS strain, dose response, counter-screen for streptokinase expression inhibitor project, luminescence, kanamycin, BacTiterGlo, confirmation (AID 1900); assay type: functional, organism-based
Protein RecA = target: T3, Protein RecA (Mycobacterium tuberculosis, UniProt P9WHJ3); assay: Fluorescence Cell-Free Homogeneous Dose Retest to Identify Inhibitors of RecA-Intein Splicing Activity. [Related pubchem assays (depositor defined):AID2097, AID2223, AID489010, AID492950]; assay type: functional
T3 sequence (P9WHJ3 whole entry): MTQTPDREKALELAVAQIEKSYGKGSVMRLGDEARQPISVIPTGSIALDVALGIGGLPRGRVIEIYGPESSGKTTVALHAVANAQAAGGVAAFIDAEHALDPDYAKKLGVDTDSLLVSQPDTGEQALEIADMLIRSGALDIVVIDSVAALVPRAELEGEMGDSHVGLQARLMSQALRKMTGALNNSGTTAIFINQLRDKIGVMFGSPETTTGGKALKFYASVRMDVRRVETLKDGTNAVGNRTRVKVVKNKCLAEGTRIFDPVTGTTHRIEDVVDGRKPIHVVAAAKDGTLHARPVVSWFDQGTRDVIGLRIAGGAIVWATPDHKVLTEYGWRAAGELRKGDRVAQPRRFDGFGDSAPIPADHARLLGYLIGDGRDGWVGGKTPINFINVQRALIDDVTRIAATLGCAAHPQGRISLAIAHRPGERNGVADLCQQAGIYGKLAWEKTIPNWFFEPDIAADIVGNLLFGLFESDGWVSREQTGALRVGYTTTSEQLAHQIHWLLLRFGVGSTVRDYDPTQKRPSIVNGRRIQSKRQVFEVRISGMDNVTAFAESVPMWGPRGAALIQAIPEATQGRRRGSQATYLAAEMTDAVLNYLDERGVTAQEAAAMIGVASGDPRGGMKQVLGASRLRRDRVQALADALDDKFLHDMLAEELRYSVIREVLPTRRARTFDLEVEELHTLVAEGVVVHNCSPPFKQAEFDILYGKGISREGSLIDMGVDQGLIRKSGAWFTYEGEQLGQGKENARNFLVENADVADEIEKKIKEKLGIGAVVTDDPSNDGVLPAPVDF

Streptokinase A = target: T4, Streptokinase A (Streptococcus pyogenes serotype M1, UniProt P10520); assay: S. pyogenes streptokinase expression inhibitors, potency, dose response, plasminogen activation absorbance, OD405 (AID 1914); assay type: functional, Streptococcus pyogenes M1 GAS;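 further: secreted streptokinase activity via plasminogen activation per viability signal from cell pellet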
T4 sequence (P10520 whole entry): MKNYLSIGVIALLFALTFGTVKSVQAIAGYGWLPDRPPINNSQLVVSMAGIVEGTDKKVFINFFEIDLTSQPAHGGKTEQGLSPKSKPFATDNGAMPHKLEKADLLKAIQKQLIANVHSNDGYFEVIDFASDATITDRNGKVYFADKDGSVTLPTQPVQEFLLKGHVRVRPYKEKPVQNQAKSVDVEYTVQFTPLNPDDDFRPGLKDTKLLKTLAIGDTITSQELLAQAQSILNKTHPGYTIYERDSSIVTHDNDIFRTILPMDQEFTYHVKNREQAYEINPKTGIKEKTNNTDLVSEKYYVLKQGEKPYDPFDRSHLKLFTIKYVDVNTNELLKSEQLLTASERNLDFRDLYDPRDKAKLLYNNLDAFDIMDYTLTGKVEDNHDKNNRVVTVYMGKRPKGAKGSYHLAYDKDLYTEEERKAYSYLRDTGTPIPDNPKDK

Streptococcus = assay: Group A Streptococcus viability loss, dose response, counter-screen for streptokinase expression inhibitor project, luminescence, BacTiterGlo (AID 1915); assay type: functional, organism-based;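 further: potency for reduction of bacterial viability or growth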
[14] = target: T5, RNA-binding protein pos-1 (Caenorhabditis elegans, UniProt G5EF15); assay: inhibitors of POS-1/mex-3 RNA binding, dose response, biochemical, fluorescence polarization (AID 1964);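 further: purified POS-1 fused to maltose binding protein made in E. coli; potency of compounds blocking POS-1 binding to fluorescent RNA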
T5 sequence (G5EF15 whole entry): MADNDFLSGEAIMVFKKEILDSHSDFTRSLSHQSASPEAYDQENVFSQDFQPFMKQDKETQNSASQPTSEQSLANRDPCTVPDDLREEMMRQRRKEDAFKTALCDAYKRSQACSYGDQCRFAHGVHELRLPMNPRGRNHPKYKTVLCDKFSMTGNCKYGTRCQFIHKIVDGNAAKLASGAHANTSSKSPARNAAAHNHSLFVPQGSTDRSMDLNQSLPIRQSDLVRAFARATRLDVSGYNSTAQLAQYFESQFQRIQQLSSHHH

[15] = target: T6, Zinc finger protein mex-5 (Caenorhabditis elegans, UniProt Q9XUB2); assay: MEX-5/TCR-2 RNA interaction inhibitors, dose response, biochemical, C. elegans, fluorescence polarization (AID 1960)
T6 sequence (Q9XUB2 whole entry): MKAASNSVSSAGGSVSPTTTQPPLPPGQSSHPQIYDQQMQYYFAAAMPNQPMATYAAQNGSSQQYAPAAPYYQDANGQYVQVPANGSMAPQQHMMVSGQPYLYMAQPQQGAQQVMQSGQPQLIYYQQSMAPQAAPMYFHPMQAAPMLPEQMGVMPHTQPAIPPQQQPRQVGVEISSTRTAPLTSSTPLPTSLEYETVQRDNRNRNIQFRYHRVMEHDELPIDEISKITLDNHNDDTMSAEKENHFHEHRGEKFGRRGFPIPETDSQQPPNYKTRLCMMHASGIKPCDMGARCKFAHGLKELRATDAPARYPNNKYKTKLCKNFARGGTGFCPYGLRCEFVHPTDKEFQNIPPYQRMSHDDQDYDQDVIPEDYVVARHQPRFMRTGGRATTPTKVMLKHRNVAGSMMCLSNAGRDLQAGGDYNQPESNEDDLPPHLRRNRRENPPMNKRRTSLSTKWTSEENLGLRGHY

[16] = target: T7, Replicative DNA helicase DnaB (Mycobacterium tuberculosis, UniProt P9WMR3); assay: DnaB intein splicing inhibitors, dose response, biochemical, cell-free fluorescence (AID 449749); assay type: functional
T7 sequence (P9WMR3 whole entry): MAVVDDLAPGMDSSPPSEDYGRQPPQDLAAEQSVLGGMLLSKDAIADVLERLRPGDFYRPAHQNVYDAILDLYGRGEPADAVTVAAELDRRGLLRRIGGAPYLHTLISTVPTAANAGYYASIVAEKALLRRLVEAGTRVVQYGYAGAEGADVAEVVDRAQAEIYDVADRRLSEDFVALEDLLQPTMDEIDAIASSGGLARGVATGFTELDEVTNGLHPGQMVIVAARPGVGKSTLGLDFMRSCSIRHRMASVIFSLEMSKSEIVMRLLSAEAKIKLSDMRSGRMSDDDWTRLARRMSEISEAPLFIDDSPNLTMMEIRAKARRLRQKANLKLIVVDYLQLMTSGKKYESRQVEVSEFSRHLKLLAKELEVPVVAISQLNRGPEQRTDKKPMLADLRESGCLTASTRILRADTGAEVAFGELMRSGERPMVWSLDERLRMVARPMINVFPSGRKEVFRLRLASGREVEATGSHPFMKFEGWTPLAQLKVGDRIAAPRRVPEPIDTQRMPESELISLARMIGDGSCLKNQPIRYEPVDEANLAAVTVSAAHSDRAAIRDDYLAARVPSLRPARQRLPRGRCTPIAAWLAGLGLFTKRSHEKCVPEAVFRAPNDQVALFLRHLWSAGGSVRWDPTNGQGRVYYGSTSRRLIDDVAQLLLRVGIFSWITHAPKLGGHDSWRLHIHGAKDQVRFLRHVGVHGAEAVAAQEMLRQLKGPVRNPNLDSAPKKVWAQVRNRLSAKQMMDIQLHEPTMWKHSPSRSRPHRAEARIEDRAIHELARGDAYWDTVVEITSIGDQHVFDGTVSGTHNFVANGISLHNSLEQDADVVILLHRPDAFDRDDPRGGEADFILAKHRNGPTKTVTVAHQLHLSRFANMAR

[17] = target: T8, Probable nicotinate-nucleotide adenylyltransferase (Staphylococcus aureus (strain N315), UniProt P65502); assay type: functional, Staphylococcus aureus subsp. aureus N315;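 on IC50 Mean: confirmatory dose-response retesting of NadD inhibitor hits first found in an ultra-high-throughput screen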
T8 sequence (P65502 whole entry): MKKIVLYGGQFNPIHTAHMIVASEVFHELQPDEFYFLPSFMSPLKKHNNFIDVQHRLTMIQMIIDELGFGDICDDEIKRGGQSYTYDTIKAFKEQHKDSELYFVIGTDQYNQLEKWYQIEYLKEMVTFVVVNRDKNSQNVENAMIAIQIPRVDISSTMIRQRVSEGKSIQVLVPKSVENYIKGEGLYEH

[18] = target: T8, Probable nicotinate-nucleotide adenylyltransferase; assay type: functional, Staphylococcus aureus subsp. aureus N315; details: read-out: IC50_Mean

Chain of Adenosylmethionine-8-amino-7-oxononanoate aminotransferase (P9WQ81 whole entry): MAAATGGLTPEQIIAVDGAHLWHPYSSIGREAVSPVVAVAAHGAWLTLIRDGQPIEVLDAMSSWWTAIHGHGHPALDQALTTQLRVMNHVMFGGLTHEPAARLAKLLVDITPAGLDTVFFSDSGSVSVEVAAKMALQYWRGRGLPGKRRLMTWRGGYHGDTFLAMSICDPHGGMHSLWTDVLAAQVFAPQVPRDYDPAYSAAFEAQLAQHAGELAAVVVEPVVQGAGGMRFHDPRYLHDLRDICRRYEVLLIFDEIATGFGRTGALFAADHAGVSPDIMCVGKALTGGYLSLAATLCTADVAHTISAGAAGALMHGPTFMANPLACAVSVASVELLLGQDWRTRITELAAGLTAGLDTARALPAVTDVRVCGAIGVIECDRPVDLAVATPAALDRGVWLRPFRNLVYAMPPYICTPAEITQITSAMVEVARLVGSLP

For O=C(Nc1cccc(F)c1)C1CCCN(c2cnccn2)C1 (configuration not stated), the AC50 [1] was 5.41 µM (active).
With O=C(O)CCCCN1C(=O)/C(=C\c2ccc(OCc3ccccc3)c(OCc3ccccc3)c2)SC1=S the IC50 [2] was 45.4 µM (active), the IC50 (Prothrombin) was 29.3 µM (active) and the IC50 [3] was > 100 µM (inactive).
With CC(=O)c1ccc(NC(=O)C(C)ONC(=N)c2ccccc2)cc1 (configuration not stated) the IC50 (Steroidogenic factor 1) was 6.11 µM (active), the IC50 [4] was 35.9 µM (inactive) and the IC50 [5] was 23.8 µM (inactive).
For O=C(CSc1nc(-c2ccc(F)cc2)nc2c1Cc1ccccc1O2)Nc1cccc(C(=O)O)c1, the IC50 [6] was 0.443 µM (active), the IC50 [7] was > 50 µM (not active) and the IC50 [8] was 4.27 µM (active). The IC50 [9] was > 66.6 µM (inactive), the IC50 [10] was 2.26 µM (active) and the IC50 [11] was 50 µM (inactive). The IC50 [12] was 0.353 µM (active).
With O=C(N/N=C/c1cc(Cl)cc([N+](=O)[O-])c1O)c1ccccc1NS(=O)(=O)c1cccs1 the IC50 [2] was 10.4 µM (active), the EC50 [13] was 4.31 µM (active) and the EC50 (Protein RecA) was 67.2 µM (active). The EC50 (Streptokinase A) was > 150 µM (not active), the EC50 (Streptococcus) was 18.9 µM (active) and the IC50 (Prothrombin) was 85.5 µM (active). The EC50 [14] was 282 µM (active), the EC50 [15] was 1.56 µM (inconclusive) and the IC50 [3] was > 100 µM (inactive). The AC50 [16] was 15.9 µM (active).
In the case of O=C(C[C@@H]1C[C@H]2c3cc(NC(=O)c4cccnc4)ccc3O[C@H]2[C@@H](CO)O1)NCc1cc(F)ccc1F, the AC50 [1] is reported as 12.6 µM (active).
For Cc1ccc(C)c(N2CCN(S(=O)(=O)c3ccc4nc(O)c(O)nc4c3)CC2)c1, the IC50 [17] was 5.39 µM (active) and the IC50 [18] was 25.9 µM (active).
With COc1ccccc1NC(=O)CN1CCN(CC(=O)Nc2ccc(S(N)(=O)=O)cc2)CC1 the IC50 (Steroidogenic factor 1) was 6.64 µM (active), the IC50 [4] was 35.9 µM (inactive) and the IC50 [5] was 25.9 µM (inactive).
With Cc1cccc(C)c1Nc1nnc(SC/C(O)=C(\C#N)c2nc3ccccc3[nH]2)s1 the IC50 [17] was 9.49 µM (active) and the IC50 [18] was 25.2 µM (active).
